Converted amounts (≈) assume the structure as drawn. Read-outs that look alike come from different tables or passages of the source.
How the values were obtained:
[1] = test system: Enterococcus faecium (ATCC 700221), VRE; assay: MIC assay (broth microdilution, CLSI); type: cell-based
[2] = test system: MRSE (S. epidermidis ATCC 35984) planktonic cells and biofilms; assay: Calgary Biofilm Device (CBD) assay, MBC/MBEC; type: cell-based, Staphylococcus epidermidis; conditions: Table 8; for MBC: Staphylococcus epidermidis, read-out: MRSE 35984 MBC
[3] = test system: MRSA-2 planktonic cells and biofilms; assay: Calgary Biofilm Device (CBD) assay, MBC/MBEC; type: cell-based, Staphylococcus aureus
[4] = test system: MRSA-1 (methicillin-resistant Staphylococcus aureus clinical isolate); assay: MIC assay (broth microdilution, CLSI); type: cell-based; conditions: Table 2A
HeLa cells = assay: in vitro; type: cell-based
Protocol: (§1) The cytotoxicities of select compounds of the invention against HeLa cells were determined. HeLa cytotoxicity was assessed using the LDH release assay described by CYTOTOX96 (Promega G1780). HeLa cells were grown in Dulbecco's Modified Eagle Medium (DMEM; Gibco) supplemented with 10% Fetal Bovine Serum (FBS) at 37° C. with 5% CO2. […] Triton X-100 (at 2% v/v) was used as the positive control for maximum lactate dehydrogenate (LDH) activity in this assay (e.g., complete cell death), while “medium only” lanes served as negative control lanes (e.g., no cell death). DMSO was used as the vehicle control. […] Finally, Stop Solution (50 μL) was added to the incubating plates, and the absorbance was measured at 490 nm.
(§2) HeLa cytotoxicity was assessed using the LDH release assay described by CYTOTOX96 (Promega G1780). HeLa cells were grown in Dulbecco's Modified Eagle Medium (DMEM; Gibco) supplemented with 10% Fetal Bovine Serum (FBS) at 37° C. with 5% CO2. […] Triton X-100 (at 2% v/v) was used as the positive control for maximum lactate dehydrogenate (LDH) activity in this assay (e.g., complete cell death), while “medium only” lanes served as negative control lanes (e.g., no cell death). DMSO was used as our vehicle control. […] Finally, Stop Solution (50 μL) was added to the incubating plates and the absorbance was measured at 490 nm. Results are from three independent experiments (FIG. 19)

in vitro = type: cell-based; conditions: human
Protocol: as §1, §2

human red blood cells = assay: Hemolysis assay with red blood cells
Protocol: The hemolysis activities of select compounds of the invention were determined. […] The washing was repeated three times with the buffer. In 96-well plate, test compounds were added to the buffer from DMSO stocks. […] The plate was then incubated for 1 hour at 37° C. After incubation, the plate was centrifuged for 5 minutes at 3,500 rpm. Then 80 μL of the supernatant was transferred to another 96-well plate, and the optical density (OD) was read at 405 nm. DMSO served as the negative control (0% hemolysis), while Triton X served as the positive control (100% hemolysis). The percent of hemolysis was calculated as (OD405 of the compound−OD405 of DMSO)/(OD405 of Triton X−OD405 of the buffer).
The washing was repeated three times with the buffer. In 96-well plate, test compounds were added to the buffer from DMSO stocks. […] The plate was then incubated for 1 hour at 37° C. After incubation, the plate was centrifuged for 5 minutes at 3,500 rpm. Then 80 μL of the supernatant was transferred to another 96-well plate and the optical density (OD) was read at 405 nm. DMSO served as our negative control (0% hemolysis) while Triton X served as our positive control (100% hemolysis). The percent of hemolysis was calculated as (OD405 of the test compound−OD405 DMSO)/(OD405 Triton X−OD405 buffer) from three independent experiments.

[5] = test system: Staphylococcus epidermidis (ATCC 35984), MRSE; assay: MIC assay (broth microdilution, CLSI); type: cell-based
[6] = test system: Staphylococcus epidermidis (ATCC 12228); assay: MIC assay (broth microdilution, CLSI); type: cell-based
MRSA BAA-1707 = assay: MIC assay (broth microdilution, CLSI); conditions: Staphylococcus aureus, read-out: MIC, MRSA BAA-1707
MRSA BAA-44 = assay: MIC assay (broth microdilution, CLSI); conditions: Staphylococcus aureus, read-out: MIC, MRSA BAA-44
[7] = test system: VRE (E. faecium ATCC 700221) planktonic cells and biofilms; assay: Calgary Biofilm Device (CBD) assay, MBC/MBEC; type: cell-based, Enterococcus faecium; conditions: Enterococcus; Table 8; c lowest concentration tested; read-out: VRE 700221 MBC
[8] = test system: MRSA-2 (methicillin-resistant Staphylococcus aureus clinical isolate); assay: MIC assay (broth microdilution, CLSI); type: cell-based; conditions: read-out: MIC, MRSA-2
[9] = Table 7, b lowest concentration tested, read-out: MIC, VRE 700221
[10] = Staphylococcus aureus, MRSA, Table 8, a/b 2-/4-fold range in independent experiments, read-out: MRSA-2 MBC
[11] = Staphylococcus epidermidis, ATCC12228, Table 7, b lowest concentration tested, read-out: MIC, S. epidermidis 12228
[12] = Staphylococcus aureus, MRSA, Table 7, a midpoint of 2-fold range, b lowest concentration tested

**Q.** Which MIC ([1]; Table 2A, read-out: MIC, Enterococcus faecium (ATCC 700221)) does the source give for `Oc1c(I)cc(I)c2nc3ccccc3nc12` [Compound 4, 2,4,-Diiodo-1-hydroxyphenazine] here?
**A.** 6.25 µM (≈ 2.8 µg/mL)

**Q.** What about the MIC [1, 9] of the same molecule?
**A.** 6.25 µM (≈ 2.8 µg/mL)

**Q.** What about the MBC [2] of the same molecule?
**A.** 31.3 µM (≈ 14 µg/mL)

**Q.** And the MBC [3, 10]?
**A.** 31.3 µM (≈ 14 µg/mL)

**Q.** What about the “MBEC, MRSA-2” value ([3]; Table 4) of the same molecule?
**A.** 93.8 µM

**Q.** What about the “MBEC:MBC ratio, MRSA-2” value ([3]; Table 4) of the same molecule?
**A.** 3.0

**Q.** What about the MBC ([3]; Table 4, read-out: MBC, MRSA-2) of the same molecule?
**A.** 31.3 µM (≈ 14 µg/mL)

**Q.** And the “MIC, MRSA-1” value [4]?
**A.** 0.78 to 1.56 µM

**Q.** What about the IC50 (HeLa cells) of the same molecule?
**A.** > 100 µM

**Q.** And the IC50 at 24 h (in vitro)?
**A.** > 100 µM

**Q.** And the “% Hemolysis (200 μM)” value (human red blood cells)?
**A.** ≤1%

**Q.** And the “% Hemolysis at 200 μM” value (human red blood cells; human, 1 h, 200 μM, pH 7.2)?
**A.** ≤1%

**Q.** And the MIC ([5]; Staphylococcus epidermidis, Table 7, read-out: MIC, MRSE 35984)?
**A.** 1.17 µM (≈ 0.524 µg/mL)

**Q.** What about the “MIC, Staphylococcus epidermidis (ATCC 35984)” value ([5]; Table 2A) of the same molecule?
**A.** 0.78 to 1.56 µM

**Q.** And the MIC [6, 11]?
**A.** 1.56 µM (≈ 0.699 µg/mL)

**Q.** And the MIC ([6]; Table 2A, read-out: MIC, Staphylococcus epidermidis (ATCC 12228))?
**A.** 1.56 µM (≈ 0.699 µg/mL)

**Q.** And the MIC (MRSA BAA-1707)?
**A.** 3.13 µM (≈ 1.4 µg/mL)

**Q.** What about the MIC (MRSA BAA-44) of the same molecule?
**A.** 3.13 µM (≈ 1.4 µg/mL)

**Q.** What about the MBC [7] of the same molecule?
**A.** 23.5 µM (≈ 10.5 µg/mL)

**Q.** And the MIC [8, 12]?
**A.** 3.13 µM (≈ 1.4 µg/mL)

**Q.** What about the MIC ([8]; Table 2A) of the same molecule?
**A.** 3.13 µM (≈ 1.4 µg/mL)

**Q.** For `C=CCc1cc(Br)c2nc3ccccc3nc2c1O` [Compound 23, 2-Allyl-4-bromo-1-hydroxyphenazine], which MIC [1, 9] is on record?
**A.** > 100 µM

**Q.** What about the MIC [6, 11] of the same molecule?
**A.** > 100 µM

**Q.** What about the MIC [8, 12] of the same molecule?
**A.** > 100 µM

**Q.** Which “% Hemolysis (200 μM)” value (human red blood cells; human, 1 h, 200 μM, pH 7.2) does the source give for `CO[C@H]1/C=C/O[C@@]2(C)Oc3c(C)c(O)c4c(O)c(c(/C=N/N5CCN(C)CC5)c(O)c4c3C2=O)NC(=O)/C(C)=C\C=C\[C@H](C)[C@H](O)[C@@H](C)[C@@H](O)[C@@H](C)[C@H](OC(C)=O)[C@@H]1C` [Rifampin, rifampin, reference compound] here?
**A.** 8.0%

**Q.** And the MIC [6, 11]?
**A.** 0.1 µM (≈ 0.0823 µg/mL)

**Q.** Which “% Hemolysis (200 μM)” value (human red blood cells; 200 μM, 1 h, 37 °C) does the source give for `O=C(O)c1cn(C2CC2)c2cc(N3CCNCC3)c(F)cc2c1=O` [Ciprofloxacin, ciprofloxacin, reference compound] here?
**A.** 1.8%

**Q.** For `N#CC(C#N)=NNc1cccc(Cl)c1` [CCCP, carbonyl cyanide m-chlorophenyl hydrazone, reference compound], which MBC [2] is on record?
**A.** 31.3 µM (≈ 6.4 µg/mL)

**Q.** What about the MBC ([3]; Staphylococcus aureus, MRSA, Table 5, a/b midpoint of 2-/4-fold range, read-out: MRSA-2 MBC) of the same molecule?
**A.** 31.3 µM (≈ 6.4 µg/mL)

**Q.** And the MBC [3, 10]?
**A.** 31.3 µM (≈ 6.4 µg/mL)

**Q.** What about the “% Hemolysis at 200 μM” value (human red blood cells; 200 μM, red blood cells) of the same molecule?
**A.** 3.5%

**Q.** And the “% Hemolysis at 200 μM” value (human red blood cells; Table 8, human red blood cells, 200 μM)?
**A.** 3.5%

**Q.** What does the source list for `O=C(O)CN(CCN(CC(=O)O)CC(=O)O)CC(=O)O` [EDTA, ethylenediaminetetraacetic acid, reference compound]?
**A.** MBC [2]: 1000 µM (≈ 292 µg/mL); MRSE 35984 MBEC [2]: > 2000 µM; % Hemolysis at 200 μM (human red blood cells; human, 1 h, 200 μM, pH 7.2): 3.0%

From patent US20180312473A1, “PHENAZINE DERIVATIVES AS ANTIMICROBIAL AGENTS” (priority 2015, published 2018)
